Experimental data reported in article PMC12007624 (Open Forum Infectious Diseases, 2025).

Assays:
[1] = Pharmacokinetics of immunosuppressants before and 2 weeks after ART switch; format: in vivo, human; settings: for AUC % Change / Cmax % Change / Cmin % Change: after vs before ART switch, P > .05
[2] = Pharmacokinetics of RAL before and DTG after switch to DTG-based ART; format: in vivo, human; settings: SOT recipients receiving immunosuppressants
[3] = test system: renal organic cation transporter OCT2; settings: renal tubules; interferes with creatinine clearance; cited from earlier work
[4] = test system: multidrug and toxin extrusion transporter MATE1; settings: renal tubules; cited from earlier work

COc1c(C)c2c(c(O)c1C/C=C(\C)CCC(=O)O)C(=O)OC2 [Mycophenolic Acid, mycophenolic acid]
Cmin ([1]; After ART switch (2 weeks on DTG-based ART), plasma, median (IQR)): 2.9 (1.7, 4) µg/mL
Cmin ([1]; Before ART switch (RAL-based ART), plasma, median (IQR)): 1.9 (1.5, 2.5) µg/mL
AUC % Change [1]: 16%
Cmax % Change [1]: 63%
Cmin % Change [1]: 53%
AUC % Change ([1]; listed as mycophenolic acid): +16%
Cmax % Change ([1]; listed as mycophenolic acid): +63%
Cmin % Change ([1]; listed as mycophenolic acid): +53%

Cc1nnc(C(=O)NC(C)(C)c2nc(C(=O)NCc3ccc(F)cc3)c(O)c(=O)n2C)o1 [RAL, Raltegravir]
plasma levels versus normal range [2]: in the normal range

C=CC[C@@H]1/C=C(\C)C[C@H](C)C[C@H](OC)[C@H]2O[C@@](O)(C(=O)C(=O)N3CCCC[C@H]3C(=O)O[C@H](/C(C)=C/[C@@H]3CC[C@@H](O)[C@H](OC)C3)[C@H](C)[C@@H](O)CC1=O)[C@H](C)C[C@@H]2OC [Tacrolimus, tacrolimus]
Cmin ([1]; After ART switch (2 weeks on DTG-based ART), blood, median (IQR)): 4.4 (4.3, 8.5) ng/mL
Tmax ([1]; After ART switch (2 weeks on DTG-based ART), median (IQR)): 2 (1, 2) h
Cmin ([1]; Before ART switch (RAL-based ART), blood, median (IQR)): 6.2 (5.2, 8.9) ng/mL
AUC % Change [1]: −9%
Cmax % Change [1]: 14%
Cmin % Change [1]: −29%
Cmax % Change ([1]; listed as tacrolimus): +14%

C[C@@H]1CCO[C@H]2Cn3cc(C(=O)NCc4ccc(F)cc4F)c(=O)c(O)c3C(=O)N12 [DTG, Dolutegravir]
effect on OCT2 [3]: inhibits
effect on MATE1 [4]: potentially
plasma levels versus normal range [2]: in the normal range
